Key:
[1] = test system: CpomOR6a; test: Single sensillum recordings, CpomOR6a expressed in Drosophila at1 OSNs; assay type: cell-based, Cydia pomonella; settings: for Spike/s: 10 μg per stimulus
From the text: To perform heterologous expression in D. melanogaster OSNs, CpomORs were amplified using primers in Table 2 and purified PCR products were cloned into the PCR8/GW/TOPO plasmid (Invitrogen) following the recommended protocol. Cassettes with inserts were then transferred from their PCR8/GW/TOPO plasmids to the destination vector (pUASg-HA.attB, constructed by E. Furger and J. Bischof, kindly provided by the Basler group, Zürich), using the Gateway LR Clonase II kit (Invitrogen). The integrity and orientation of inserts was confirmed by sequencing (Sanger sequencer, 3730xl). Transformant UAS-CpomOR3 and UAS-CpomOR1 lines were generated by Best Gene (Chino Hills, CA, USA), using the PhiC31 integrase system, while the transformant UAS-CpomOR6a line was generated in our labs. Briefly, recombinant pUASg-HA.attB-CpomOR plasmids were injected into embryos of a D. melanogaster line containing an attP insertion site within the third chromosome (genotype y1 M{vas-int.Dm}ZH-2A w*; M{3xP3-RFP.attP}ZH-86Fb), leading to non-random integration. To drive expression of CpomORs in at1 OSNs in place of the endogenous receptor Or67d, transformant UAS-CpomOR lines were crossed to the knock-in Or67d^GAL4 line (kindly provided by Barry Dickson) to generate double homozygous lines w^+;UAS-CpomOR; Or67d^GAL4. Additionally, to drive expression of CpomOR3 in ab3A OSNs, the UAS-CpomOR3 line was crossed to the Δhalo;Or22a-Gal4 mutant line[20][57]. To verify insertion of UAS-CpomORs constructs into the genome, gDNA was extracted and used as template in PCR with primers for the full ORF of CpomORs (Table 2).
CpomOR1 and CpomOR6a expressed in at1 OSNs, and CpomOR3 expressed in ab3A OSNs, were tested through single sensillum recordings (SSR). Three to 8-day-old flies were immobilized in 100 μL pipette tips with only the top half of the head protruding. The left antenna of each insect was gently pushed with a glass capillary against a double-sided adhesive tape placed on a piece of glass. This piece of glass and the pipette tip were fixed with dental wax on a microscope slide. Electrolytically sharpened tungsten electrodes (Harvard Apparatus Ltd, Edenbridge, United Kingdom) were used to penetrate the insect´s body. The reference electrode was manually inserted in the right eye of the fly, while the recording electrode was manoeuvred with a DC-3K micromanipulator equipped with a PM-10 piezo translator (Märzhäuser Wetzler GmbH, Wetzler, Germany) and inserted at the base of the determined sensilla. Signals coming from the olfactory sensory neurons were amplified 10 times with a probe (INR-02, Syntech, Hilversum, the Netherlands), digitally converted through an IDAC-4-USB (Syntech) interface, and visualized and analysed with the software Autospike v. 3.4 (Syntech). A constant flow of 0.65 m/s of humidified air (charcoal-filtered) was delivered through a glass tube to the antenna. The panel of odorants was given to the insect by inserting pipettes containing a piece of filter paper with the correspondent stimulus in a lateral hole of the glass tube and puffing a flow of 2.5 mL of air during 0.5 s through the pipette. For CpomOR1 and CpomOR6a the panel of odorants was prepared by applying 10 μL of a solution of 1.0 μg/μL of the compounds in Supplementary Dataset S2 and Supplementary Dataset S3, for a total amount of 10 μg per stimulus. In the case of CpomOR3, a similar dilution process was used for the dose response experiments of ethyl-(E,Z)-2,4-decadienoate and methyl-(E,Z)-2,4-decadienoate, as well for dose response of experiments of codlemone acetate in CpomOR6a. Compounds were diluted from concentrations ranging from 0.01 ng/μL to 10 μg/μL in decadic steps, allowing reaching concentrations from 100 pg to 100 μg per stimulus when 10 μL of the dilution was applied in the piece of filter paper. […]

[2] = test system: CpomOR1; test: Single sensillum recordings, CpomOR1 expressed in Drosophila at1 OSNs; assay type: cell-based, Cydia pomonella
[3] = replicate 1, 10 μg per stimulus
[4] = replicate 2, 10 μg per stimulus
[5] = replicate 3, 10 μg per stimulus
[6] = replicate 4, 10 μg per stimulus
[7] = replicate 5, 10 μg per stimulus

| Compound | Spike/s ([1]; replicate 1) | Spike/s ([1]; replicate 2) | Spike/s ([1]; replicate 3) | Spike/s ([1]; replicate 4) | Spike/s ([1]; replicate 5) | Spike/s ([1]; replicate 6) | Spike/s ([1]; replicate 7) | Spike/s ([1]; replicate 8) | Spike/s ([1]; replicate 9) | Spikes/s [2, 3] | Spikes/s [2, 4] | Spikes/s [2, 5] | Spikes/s [2, 6] | Spikes/s [2, 7] | other results |
| --- | --- | --- | --- | --- | --- | --- | --- | --- | --- | --- | --- | --- | --- | --- | --- |
| C/C=C/C=C/CCCCCCCOC(C)=O [codlemone acetate, (E,E)-8,10-dodecadien-1-yl acetate] | 46 Spike/s | 50 Spike/s | 44 Spike/s | 54 Spike/s | 80 Spike/s | 46 Spike/s | 82 Spike/s | 62 Spike/s | 58 Spike/s | 2 Spikes/s | 4 Spikes/s | 4 Spikes/s | 2 Spikes/s | 4 Spikes/s | response compared with the solvent ([1]; 10 μg doses, Mann-Whitney U Test, p < 0.05): strongest response significantly different from the solvent; threshold for detection ([1]; dose response, dose per stimulus): 1.0 microgram |
| C/C=C/C=C/CCCCCCCO [codlemone, (E,E)-8,10-dodecadien-1-ol] | 0 Spike/s | 0 Spike/s | -4 Spike/s | 6 Spike/s | 0 Spike/s | 2 Spike/s | 14 Spike/s | 0 Spike/s | 2 Spike/s | 6 Spikes/s | 2 Spikes/s | 0 Spikes/s | -12 Spikes/s | 0 Spikes/s | Spikes/s ([2]; replicate 1, 100 ng): -4 Spikes/s; Spikes/s ([2]; replicate 2, 100 ng): 2 Spikes/s; Spikes/s ([2]; replicate 3, 100 ng): 2 Spikes/s; Spikes/s ([2]; replicate 4, 100 ng): -8 Spikes/s; Spikes/s ([2]; replicate 5, 100 ng): -4 Spikes/s |
